# Laboratory results taken from US10093973B2, “Polymerase compositions and methods” (LIFE TECHNOLOGIES CORPORATION, priority 2009, dated 2018).
# Substitutions are numbered along the chain they refer to.
# Tests used:
# Type in all cases: biochemical
# [1] = tested on: ωdN4P and extendible AF546 primer:template duplex; test: Stopped-flow tpol measurement of Example 8; conditions: modified versus reference polymerase, ωdN4P 14 μM
# Procedure: In this example, the tpol values of an exemplary modified polymerase comprising the amino acid of SEQ ID NO: 8 and was measured and compared to the tpol value of an exemplary reference polymerase comprising the amino acid sequence of SEQ ID NO: 20. These kinetic parameters were evaluated using a stopped-flow assay wherein a mixture comprising an extendible dye-labeled primer:template duplex and test polymerase was mixed with a solution comprising terminally-labeled nucleotide tetraphosphates or terminally-labeled nucleotide hexaphosphates. These terminally-labeled nucleotides comprise terminal-phosphate-labeled nucleotides having an alkyl linker with a functional amine group attached to the dye. The fluorescence of the resulting mixture was monitored over time. Unless noted otherwise, all concentrations refer to the initial concentrations prior to mixing. […]
# Each primer-template duplex (200 nM) was preincubated with test polymerase (660 nM) and to form an E.DNA binary complex. This binary complex was mixed with the cognate omega-labeled nucleoside tetraphosphate (ωdN4P; 14 μM) in a stopped-flow experiment, and the fluorescence at both 546 nm and 647 nm was monitored following mixing. The averaged stopped-flow fluorescence traces were fitted with the double exponential function of Equation (2) to extrapolate the tpol value of the test polymerase: […]
# [2] = tested on: ωdN4P and non-extendible AF546 primer:template duplex; test: Stopped-flow t−1 measurement of Example 7; conditions: modified versus reference polymerase, ωdN4P 14 μM
# Procedure: In this example, the t−1 values of an exemplary modified polymerase comprising the amino acid of SEQ ID NO: 8 and an exemplary reference polymerase comprising the amino acid sequence of SEQ ID NO: 20 were measured and compared. These kinetic parameters were evaluated using an assay system wherein mixtures comprising a test polymerase and a primer:template duplex were mixed in a stopped-flow assay with nucleotides. To measure t−1, the primer used to form the primer:template duplex was a non-extendible primer including a dideoxynucleotide at its 3′ end, and the template was a synthetic DNA template comprising a donor Alexa Fluor 546 moiety at its 5′ end. […] The ternary complex was mixed with unlabeled nucleotides in a stopped-flow experiment, and the resulting fluorescence was monitored as described below. […]
# Preincubated mixtures comprising 200 nM of a primer:templex duplex, 660 nM of test polymerase, and 14 μM of ωdN4P were prepared and then mixed with a solution comprising the unlabeled cognate nucleotide (50 μM) in a stopped-flow apparatus. The fluorescence at both 546 nm and 647 nm was monitored following mixing. The averaged stopped-flow fluorescence traces were fitted with a single exponential function having the form of Equation (1) to extrapolate the t−1 value of the test polymerase.
# [3] = tested on: AF647-C6-dG6P in [enzyme.DNA.nucleotide] ternary complex with dideoxy-primer/template duplex; test: Stopped-flow measurement of t−1 (nucleotide dissociation from ternary complex); design: unit not given here; conditions: t−1 = 1/k−1; ternary complex with 7 μM AF647-C6-dG6P chased with 50 μM non-labeled nucleotide, 2 mM MnCl2
# Procedure: Stopped-Flow Measurements of t−1
# The stopped-flow techniques for measuring t−1 ([…]) followed the techniques described by M. Bakhtina (2009 Biochemistry 48:3197-3208).
# The rate of the nucleotide dissociation ([…]) from the ternary complex of [enzyme.DNA.nucleotide] was measured in an Applied Photophysics SX20 stopped-flow spectrometer by monitoring changes […] a duplex Alexa fluor 546 dye-labeled-DNA template following the mixing of the [enzyme.DNA.labeled nucleotide] ternary complex with 50 μM cognate non-labeled deoxynucleoside triphosphate in a buffer containing 50 mM Tris-HCl (pH 7.5), 50 mM NaCl, 4 mM DTT, 0.2% BSA, and 2 mM MnCl2.
# The ternary complexes were prepared using: 330 nM polymerase, 100 nM template/primer duplex, and 7 μM terminal phosphate-labeled nucleotides (AF647-C6-dG6P).
# The averaged stopped-flow fluorescence traces (>1.5 msec) were fitted with a single exponential equation (2) to extrapolate the rate of the nucleotide dissociation (k−1) from the [enzyme.DNA.nucleotide] ternary complex. Fluorescence=A1*e^−k−1*t+C (equation 2) where A1 represents the corresponding fluorescence amplitude, C is an offset constant, and k−1 and the observed rate constants for the fluorescence transition.
substance,measurement,setting,value
"mB103 (SEQ ID: 8): B103 polymerase triple mutant with D166A, F383L and D384N",estimated tpol values,[1],comparable
same,estimated t−1 values,[2],comparable
same,t−1,[3],16
